# Measured values from patent publication US9199946B2, “Pyrimidinone carboxamide inhibitors of endothelial lipase” (BRISTOL-MYERS SQUIBB COMPANY, priority 2012, dated 2015).
# Target: T1, Endothelial lipase (EL) (Homo sapiens, UniProt Q9Y5X9)
# T1 construct: HT-1080 cells, which were transformed by RAGE technology (Athersys) to overexpress endogenous EL; endogenous in cells; conditioned medium used as the enzyme source
# T1 sequence (Q9Y5X9 21-500): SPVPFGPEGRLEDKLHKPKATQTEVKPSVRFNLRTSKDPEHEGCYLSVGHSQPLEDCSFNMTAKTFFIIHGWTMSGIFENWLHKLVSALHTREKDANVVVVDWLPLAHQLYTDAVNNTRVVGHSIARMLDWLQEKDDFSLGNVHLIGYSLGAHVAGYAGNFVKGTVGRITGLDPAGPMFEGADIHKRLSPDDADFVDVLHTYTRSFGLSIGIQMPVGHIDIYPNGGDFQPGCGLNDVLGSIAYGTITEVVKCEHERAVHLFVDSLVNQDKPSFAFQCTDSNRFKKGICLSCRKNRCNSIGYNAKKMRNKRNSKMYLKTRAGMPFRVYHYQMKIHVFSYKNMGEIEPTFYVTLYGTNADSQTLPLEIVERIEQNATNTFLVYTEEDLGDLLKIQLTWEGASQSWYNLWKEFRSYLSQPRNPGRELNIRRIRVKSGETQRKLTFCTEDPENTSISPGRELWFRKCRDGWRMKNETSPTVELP
# Experiment: Endothelial lipase (EL) enzymatic assay with fluorescent substrate A10070 in DMPG vesicles
# Format: biochemical
# Conditions: conditioned media from HT-1080 cells overexpressing endogenous EL; 20 min preincubation at 37° C.; read-out: EL IC50
# How it was run: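 The enzyme source was conditioned medium from HT-1080 cells engineered to overexpress endogenous EL. It was preincubated with compound for 20 min at 37 °C in 50 mM HEPES pH 8.0, 50 mM NaCl, 1 mM CaCl2. Reactions started with DMPG vesicles carrying FRET substrate A10070 (mole fraction 0.05). The rate was taken from the linear slope of fluorescence (ex 488/em 530 nm) over 10 min.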
row,SMILES,IC50 [µM]
1,"Nc1c(C(=O)NC2CCN(c3ncnc4[nH]ncc34)C2)[nH]c(=O)[nH]c1=O (centres unmarked) [Example 189, N-(1-(1H-pyrazolo[3,4-d]pyrimidin-4-yl)pyrrolidin-3-yl)-5-amino-2,6-dioxo-1,2,3,6-tetrahydropyrimidine-4-carboxamide]",0.641
2,"Nc1c(C(=O)NC2CCC(NC(=O)Cc3nc4ccc(-c5ccccc5)cc4s3)C2)[nH]c(=O)[nH]c1=O (centres unmarked) [Example 135, 5-amino-2,6-dioxo-N-(3-(2-(6-phenylbenzo[d]thiazol-2-yl)acetamido)cyclopentyl)-1,2,3,6-tetrahydropyrimidine-4-carboxamide]",3.68

# Second part, the compound after the results:
row,IC50 [µM],SMILES
1,1.91,"Nc1c(C(=O)NC2CC=C(c3ccc(F)c(F)c3)CC2)[nH]c(=O)[nH]c1=O (centres unmarked) [Example 202, 5-Amino-N-(4-(3,4-difluorophenyl)cyclohex-3-enyl)-2,6-dioxo-1,2,3,6-tetrahydropyrimidine-4-carboxamide]"
2,2.78,"Nc1c(C(=O)N[C@@H]2CCc3c2cccc3C(F)(F)F)[nH]c(=O)[nH]c1=O [Example 14, (R)-5-amino-2,6-dioxo-N-(4-(trifluoromethyl)-2,3-dihydro-1H-inden-1-yl)-1,2,3,6-tetrahydropyrimidine-4-carboxamide]"

# Same assay, conditions: range observed in the EL assay; read-out: EL IC50 values
row,SMILES,IC50 [µM]
1,"Nc1c(C(=O)NC2CCN(c3ncnc4[nH]ncc34)C2)[nH]c(=O)[nH]c1=O (centres unmarked) [Example 189, N-(1-(1H-pyrazolo[3,4-d]pyrimidin-4-yl)pyrrolidin-3-yl)-5-amino-2,6-dioxo-1,2,3,6-tetrahydropyrimidine-4-carboxamide]",≤ 10
2,"Nc1c(C(=O)N[C@H]2CC[C@@H](c3ccc(-c4cnn(Cc5ccccc5)c4)cc3)C2)[nH]c(=O)[nH]c1=O (stereo in doubt) [Example 179, 5-amino-N-((1S,3R)-3-(4-(1-benzyl-1H-pyrazol-4-yl)phenyl)cyclopentyl)-2,6-dioxo-1,2,3,6-tetrahydropyrimidine-4-carboxamide]",≤ 10
3,"COCCNc1c(C(=O)N[C@H]2CC[C@@H](c3ccccc3)CC2)[nH]c(=O)[nH]c1=O [Example 214, 5-(2-methoxyethylamino)-2,6-dioxo-N-(cis-4-phenylcyclohexyl)-1,2,3,6-tetrahydropyrimidine-4-carboxamide]",≤ 10
4,"Nc1c(C(=O)NC2Cc3ccccc3C2Cc2ccccc2)[nH]c(=O)[nH]c1=O (centres unmarked) [Example 8, 5-amino-N-(1-benzyl-2,3-dihydro-1H-inden-2-yl)-2,6-dioxo-1,2,3,6-tetrahydropyrimidine-4-carboxamide]",≤ 10
5,"Nc1c(C(=O)N[C@H]2CC[C@@H](c3ccc(-c4ccc(Cl)cc4)cc3)C2)[nH]c(=O)[nH]c1=O [Example 170, 5-amino-N-((1S,3R)-3-(4′-chlorobiphenyl-4-yl)cyclopentyl)-2,6-dioxo-1,2,3,6-tetrahydropyrimidine-4 carboxamide]",≤ 10
6,"Cc1c(-c2ccc([C@H]3CC[C@@H](NC(=O)c4[nH]c(=O)[nH]c(=O)c4N)C3)cc2)cnn1-c1ccccc1 [Example 165, 5-amino-N-((1R,3S)-3-(4-(5-methyl-1-phenyl-1H-pyrazol-4-yl)phenyl)cyclopentyl)-2,6-dioxo-1,2,3,6-tetrahydropyrimidine-4-carboxamide]",≤ 10
7,"Nc1c(C(=O)NC2CCC(c3ccc(OCc4ccccc4)cc3)C2)[nH]c(=O)[nH]c1=O (centres unmarked) [Example 106, 5-amino-N-(3-(4-(benzyloxy)phenyl)cyclopentyl)-2,6-dioxo-1,2,3,6-tetrahydropyrimidine-4-carboxamide]",≤ 10
8,"CC(=O)Nc1ccccc1-c1ccc([C@@H]2CC[C@H](NC(=O)c3[nH]c(=O)[nH]c(=O)c3N)C2)cc1 [Example 162, N-((1S,3R)-3-(2′-acetamidobiphenyl-4-yl)cyclopentyl)-5-amino-2,6-dioxo-1,2,3,6-tetrahydropyrimidine-4-carboxamide]",≤ 10
9,"O=C(N[C@H]1CC[C@@H](c2ccccc2)C1)c1[nH]c(=O)[nH]c(=O)c1O [Example 273, 5-hydroxy-2,6-dioxo-N-((1S,3R)-3-phenylcyclopentyl)-1,2,3,6-tetrahydropyrimidine-4-carboxamide]",≤ 10
10,"Nc1c(C(=O)N[C@H]2CCN(c3ccccc3)C2)[nH]c(=O)[nH]c1=O [Example 192, (S)-5-amino-2,6-dioxo-N-(1-phenylpyrrolidin-3-yl)-1,2,3,6-tetrahydropyrimidine-4-carboxamide]",≤ 10
11,"CC(C)CNc1c(C(=O)N[C@H]2CC[C@@H](c3ccccc3)CC2)[nH]c(=O)[nH]c1=O [Example 206, 5-(isobutylamino)-2,6-dioxo-N-(cis-4-phenylcyclohexyl)-1,2,3,6-tetrahydropyrimidine-4-carboxamide]",≤ 10
12,"O=C(N[C@@H]1CC[C@H](c2ccccc2)c2ccccc21)c1[nH]c(=O)[nH]c(=O)c1O [Example 250, 5-hydroxy-2,6-dioxo-N-((1R,4R)-4-phenyl-1,2,3,4-tetrahydronaphthalen-1-yl)-1,2,3,6-tetrahydropyrimidine-4-carboxamide]",≤ 10
13,"O=C(N[C@@H]1CCCc2c(OCC3CCCC3)cccc21)c1[nH]c(=O)[nH]c(=O)c1O [Example 291, (R)-N-(5-(cyclopentylmethoxy)-1,2,3,4-tetrahydronaphthalen-1-yl)-5-hydroxy-2,6-dioxo-1,2,3,6-tetrahydropyrimidine-4-carboxamide]",≤ 10
14,"Nc1c(C(=O)NC2CCC(NC(=O)Cc3nc4ccc(-c5ccccc5)cc4s3)C2)[nH]c(=O)[nH]c1=O (centres unmarked) [Example 135, 5-amino-2,6-dioxo-N-(3-(2-(6-phenylbenzo[d]thiazol-2-yl)acetamido)cyclopentyl)-1,2,3,6-tetrahydropyrimidine-4-carboxamide]",≤ 10
15,"O=C(Cn1c(=O)[nH]c(C(=O)N[C@H]2CC[C@@H](c3ccccc3)CC2)c(O)c1=O)N[C@H]1CC[C@@H](c2ccccc2)CC1 [Example 268, 5-Hydroxy-2,6-dioxo-1-(2-oxo-2-((cis-4-phenylcyclohexyl)amino)ethyl)-N-(cis-4-phenylcyclohexyl)-1,2,3,6-tetrahydropyrimidine-4-carboxamide]",≤ 10

# More lines, now with the values ahead:
row,IC50 [µM],SMILES
1,≤ 10,"COc1ccc2c(c1OC)CCC(NC(=O)c1[nH]c(=O)[nH]c(=O)c1N)C2 (centres unmarked) [Example 108, 5-amino-N-(5,6-dimethoxy-1,2,3,4-tetrahydronaphthalen-2-yl)-2,6-dioxo-1,2,3,6-tetrahydropyrimidine-4-carboxamide]"
2,≤ 10,"Nc1c(C(=O)N[C@H]2CCCc3c(OCC(F)(F)F)cccc32)[nH]c(=O)[nH]c1=O [Example 35, (S)-5-amino-2,6-dioxo-N-(5-(2,2,2-trifluoroethoxy)-1,2,3,4-tetrahydronaphthalen-1-yl)-1,2,3,6-tetrahydropyrimidine-4-carboxamide]"
3,≤ 10,"CS(=O)(=O)N1CCC(NC(=O)c2[nH]c(=O)[nH]c(=O)c2N)c2ccccc21 (single isomer, unassigned; enantiomer b) [Example 196, 5-amino-N-(1-(methylsulfonyl)-1,2,3,4-tetrahydroquinolin-4-yl)-2,6-dioxo-1,2,3,6-tetrahydropyrimidine-4-carboxamide (Enantiomer B)]"
4,≤ 10,"Nc1c(C(=O)N[C@@H]2CC[C@@H](C(=O)N[C@H]3CC[C@@H](c4cccc(C(F)(F)F)c4)CC3)C2)[nH]c(=O)[nH]c1=O [Example 150, 5-amino-2,6-dioxo-N-((1R,3R)-3-(cis-4-(3-(trifluoromethyl)phenyl)cyclohexylcarbamoyl)cyclopentyl)-1,2,3,6-tetrahydropyrimidine-4-carboxamide]"
5,≤ 10,"Nc1c(C(=O)NC2CC=C(c3ccc(F)c(F)c3)CC2)[nH]c(=O)[nH]c1=O (centres unmarked) [Example 202, 5-Amino-N-(4-(3,4-difluorophenyl)cyclohex-3-enyl)-2,6-dioxo-1,2,3,6-tetrahydropyrimidine-4-carboxamide]"
6,≤ 10,"Nc1c(C(=O)NC2CCC(c3ccccc3)CC2)[nH]c(=O)[nH]c1=O (centres unmarked) [Example 2, 5-amino-2,6-dioxo-N-(4-phenylcyclohexyl)-1,2,3,6-tetrahydropyrimidine-4-carboxamide]"
7,≤ 10,"COc1ccc2c(c1)[C@@H](NC(=O)c1[nH]c(=O)[nH]c(=O)c1O)CCC2 [Example 265, (S)-5-hydroxy-N-(7-methoxy-1,2,3,4-tetrahydronaphthalen-1-yl)-2,6-dioxo-1,2,3,6-tetrahydropyrimidine-4-carboxamide]"
8,≤ 10,"Nc1c(C(=O)N[C@H]2CCCc3cc(C(F)(F)F)ccc32)[nH]c(=O)[nH]c1=O [Example 52, (S)-5-amino-2,6-dioxo-N-(6-(trifluoromethyl)-1,2,3,4-tetrahydronaphthalen-1-yl)-1,2,3,6-tetrahydropyrimidine-4-carboxamide]"
9,≤ 10,"Nc1c(C(=O)N[C@@H]2CCc3cc(C(F)(F)F)ccc32)[nH]c(=O)[nH]c1=O [Example 27, (R)-5-amino-2,6-dioxo-N-(5-(trifluoromethyl)-2,3-dihydro-1H-inden-1-yl)-1,2,3,6-tetrahydropyrimidine-4-carboxamide]"
10,≤ 10,"Nc1c(C(=O)N[C@@H]2CCCc3cc(OCC(F)(F)F)ccc32)[nH]c(=O)[nH]c1=O [Example 33, (R)-5-amino-2,6-dioxo-N-(6-(2,2,2-trifluoroethoxy)-1,2,3,4-tetrahydronaphthalen-1-yl)-1,2,3,6-tetrahydropyrimidine-4-carboxamide]"
11,≤ 10,"Nc1c(C(=O)NC2CCCc3cc(OCC(F)(F)F)ccc32)[nH]c(=O)[nH]c1=O (centres unmarked) [Example 22, 5-amino-2,6-dioxo-N-(6-(2,2,2-trifluoroethoxy)-1,2,3,4-tetrahydronaphthalen-1-yl)-1,2,3,6-tetrahydropyrimidine-4-carboxamide]"
12,≤ 10,"O=C(N[C@@H]1CCc2cc(C(F)(F)F)ccc21)c1[nH]c(=O)[nH]c(=O)c1O [Example 249, (R)-5-hydroxy-2,6-dioxo-N-(5-(trifluoromethyl)-2,3-dihydro-1H-inden-1-yl)-1,2,3,6-tetrahydropyrimidine-4-carboxamide]"
13,≤ 10,"Nc1c(C(=O)N[C@@H]2CCc3c2cccc3C(F)(F)F)[nH]c(=O)[nH]c1=O [Example 14, (R)-5-amino-2,6-dioxo-N-(4-(trifluoromethyl)-2,3-dihydro-1H-inden-1-yl)-1,2,3,6-tetrahydropyrimidine-4-carboxamide]"
